Laboratory results from patent publication US9359358B2, “Cyclohexyl azetidine derivatives as JAK inhibitors” (Incyte Holdings Corporation, priority 2011, dated 2016).
Structures can show the parent of a compound that is named as a salt.

Tests used:
human JAK1 = biological target: T1, human JAK1 (Homo sapiens, UniProt P23458); experiment: In Vitro JAK Kinase Assay (HTRF, phosphorylation of a biotinylated peptide), JAK1; format: biochemical; conditions: catalytic domain a.a. 837-1142, assay of Example A
T1 construct: human JAK1 (a.a. 837-1142); His tag (N); made in house; host or cells: insect cells (baculovirus)
T1 sequence (P23458 849-1154): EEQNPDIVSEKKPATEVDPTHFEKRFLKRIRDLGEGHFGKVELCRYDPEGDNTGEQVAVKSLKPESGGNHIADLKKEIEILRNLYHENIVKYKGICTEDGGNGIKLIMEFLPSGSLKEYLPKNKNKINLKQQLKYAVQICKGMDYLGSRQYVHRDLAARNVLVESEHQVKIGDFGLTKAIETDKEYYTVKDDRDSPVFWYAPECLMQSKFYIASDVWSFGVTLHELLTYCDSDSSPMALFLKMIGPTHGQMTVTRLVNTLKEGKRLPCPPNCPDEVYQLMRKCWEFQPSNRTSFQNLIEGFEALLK
Experimental: (§1) The catalytic activity of JAK1, JAK2 or JAK3 was assayed by measuring the phosphorylation of a biotinylated peptide. The phosphorylated peptide was detected by homogenous time resolved fluorescence (HTRF). […] Reactions were carried out at room temperature for 1 hour and then stopped with 20 μL 45 mM EDTA, 300 nM SA-APC, 6 nM Eu-Py20 in assay buffer (Perkin Elmer, Boston, Mass.). Binding to the Europium labeled antibody took place for 40 minutes and HTRF signal was measured on a Fusion plate reader (Perkin Elmer, Boston, Mass.).

human JAK2 = biological target: T2, human JAK2 (Homo sapiens, UniProt O60674); experiment: In Vitro JAK Kinase Assay (HTRF, phosphorylation of a biotinylated peptide), JAK2; format: biochemical; conditions: assay of Example A
T2 construct: JAK2 (a.a. 828-1132); His tag (N); made in house; host or cells: insect cells (baculovirus)
T2 sequence (O60674 828-1132): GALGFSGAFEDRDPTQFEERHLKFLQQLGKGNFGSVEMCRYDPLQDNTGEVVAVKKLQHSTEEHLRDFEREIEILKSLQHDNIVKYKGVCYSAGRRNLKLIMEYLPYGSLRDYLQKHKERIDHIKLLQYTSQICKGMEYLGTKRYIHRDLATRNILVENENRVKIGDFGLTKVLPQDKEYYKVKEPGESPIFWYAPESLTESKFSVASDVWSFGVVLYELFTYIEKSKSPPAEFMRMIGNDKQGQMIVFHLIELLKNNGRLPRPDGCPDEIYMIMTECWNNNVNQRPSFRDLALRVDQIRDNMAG
Experimental: as §1

| Molecule | IC50 (human JAK1; Table 4) | JAK2/JAK1 IC50 ratio (human JAK2; Table 4) | IC50 (human JAK1; Table 5) | JAK2/JAK1 IC50 ratio (human JAK2; Table 5) |
| --- | --- | --- | --- | --- |
| 2-(1-(cis-4-((6-(((2-(1H-imidazol-4- yl)ethyl)amino)methyl)-2- (trifluoromethyl)pyrimidin-4- yl)oxy)cyclohexyl)-3-(4-(7H-pyrrolo[2,3- d]pyrimidin-4-yl)-1H-pyrazol-1- yl)azetidin-3-yl)acetonitrile tris(trifluoroacetate) (salt) [Example 39] | < 10 nM | ≧10 | – | – |
| CCC(C)NC(=O)c1cc(O[C@H]2CC[C@@H](N3CC(CC#N)(n4cc(-c5ncnc6[nH]ccc56)cn4)C3)CC2)nc(C(F)(F)F)c1.O=C(O)C(F)(F)F.O=C(O)C(F)(F)F (relative stereo) [Example 88, N-(sec-butyl)-2-[(cis-4-{3-(cyanomethyl)-3-[4-(7H-pyrrolo[2,3-d]pyrimidin-4-yl)-1H-pyrazol-1-yl]azetidin-1-yl}cyclohexyl)oxy]-6-(trifluoromethyl)isonicotinamide bis(trifluoroacetate)] | – | – | < 10 nM | ≧10 |
| CC(O)c1cc(OC2CCC(N3CC(CC#N)(n4cc(-c5ncnc6[nH]ccc56)cn4)C3)CC2)nc(C(F)(F)F)n1 (single isomer, unassigned) [Example 58, {1-(cis-4-{[6-(1-hydroxyethyl)-2-(trifluoromethyl)pyrimidin-4-yl]oxy}cyclohexyl)-3-[4-(7H-pyrrolo[2,3-d]pyrimidin-4-yl)-1H-pyrazol-1-yl]azetidin-3-yl}acetonitrile tris(trifluoroacetate) (salt)] | < 10 nM | ≧10 | – | – |
| CC(O)c1cc(OC2CCC(N3CC(CC#N)(n4cc(-c5ncnc6[nH]ccc56)cn4)C3)CC2)nc(C(F)(F)F)n1 (single isomer, unassigned) [Example 58a, {1-(cis-4-{[6-(1-hydroxyethyl)-2-(trifluoromethyl)pyrimidin-4-yl]oxy}cyclohexyl)-3-[4-(7H-pyrrolo[2,3-d]pyrimidin-4-yl)-1H-pyrazol-1-yl]azetidin-3-yl}acetonitrile tris(trifluoroacetate) (salt)] | < 10 nM | ≧10 | – | – |
| N#CCC1(n2cc(-c3ncnc4[nH]ccc34)cn2)CN([C@H]2CC[C@@H](Oc3cc(CN4CCC[C@@H]4CO)cc(C(F)(F)F)n3)CC2)C1.O=C(O)C(F)(F)F.O=C(O)C(F)(F)F.O=C(O)C(F)(F)F (stereo in doubt) [Example 93, {1-(cis-4-{[4-{[(2R)-2-(hydroxymethyl)pyrrolidin-1-yl]methyl}-6-(trifluoromethyl)pyridin-2-yl]oxy}cyclohexyl)-3-[4-(7H-pyrrolo[2,3-d]pyrimidin-4-yl)-1H-pyrazol-1-yl]azetidin-3-yl}acetonitrile tris(trifluoroacetate)] | – | – | < 10 nM | ≧10 |
| N#CCC1(n2cc(-c3ncnc4[nH]ccc34)cn2)CN([C@H]2CC[C@@H](Oc3cc(CN4CCC[C@H]4CO)cc(C(F)(F)F)n3)CC2)C1.O=C(O)C(F)(F)F.O=C(O)C(F)(F)F.O=C(O)C(F)(F)F (stereo in doubt) [Example 94, {1-(cis-4-{[4-{[(2S)-2-(hydroxymethyl)pyrrolidin-1-yl]methyl}-6-(trifluoromethyl)pyridin-2-yl]oxy}cyclohexyl)-3-[4-(7H-pyrrolo[2,3-d]pyrimidin-4-yl)-1H-pyrazol-1-yl]azetidin-3-yl}acetonitrile tris(trifluoroacetate)] | – | – | < 10 nM | ≧10 |
| N#CCC1(n2cc(-c3ncnc4[nH]ccc34)cn2)CN([C@H]2CC[C@@H](Oc3cc(CO)nc(C(F)(F)F)n3)CC2)C1 [Example 2, {1-(cis-4-{[6-(Hydroxymethyl)-2-(trifluoromethyl)pyrimidin-4-yl]oxy}cyclohexyl)-3-[4-(7H-pyrrolo[2,3-d]pyrimidin-4-yl)-1H-pyrazol-1-yl]azetidin-3-yl}acetonitrile bis(trifluoroacetate)] | < 10 nM | ≧10 | – | – |
| N#CCC1(n2cc(-c3ncnc4[nH]ccc34)cn2)CN([C@H]2CC[C@@H](Oc3cc(CN)nc(C(F)(F)F)n3)CC2)C1 [Example 3, {1-(cis-4-{[6-(Aminomethyl)-2-(trifluoromethyl)pyrimidin-4-yl]oxy}cyclohexyl)-3-[4-(7H-pyrrolo[2,3-d]pyrimidin-4-yl)-1H-pyrazol-1-yl]azetidin-3-yl}acetonitrile tetrakis(trifluoroacetate)] | < 10 nM | ≧10 | – | – |
| CC(C)CNCc1cc(O[C@H]2CC[C@@H](N3CC(CC#N)(n4cc(-c5ncnc6[nH]ccc56)cn4)C3)CC2)nc(C(F)(F)F)n1 [Example 35, {1-(cis-4-{[6-[(isobutylamino)methyl]-2-(trifluoromethyl)pyrimidin-4-yl]oxy}cyclohexyl)-3-[4-(7H-pyrrolo[2,3-d]pyrimidin-4-yl)-1H-pyrazol-1-yl]azetidin-3-yl}acetonitrile tris(trifluoroacetate)] | < 10 nM | – | – | – |
| CC(C)(CO)NCc1cc(O[C@H]2CC[C@@H](N3CC(CC#N)(n4cc(-c5ncnc6[nH]ccc56)cn4)C3)CC2)nc(C(F)(F)F)c1 [Example 71, {1-(cis-4-{[4-{[(2-hydroxy-1,1-dimethylethyl)amino]methyl}-6-(trifluoromethyl)pyridin-2-yl]oxy}cyclohexyl)-3-[4-(7H-pyrrolo[2,3-d]pyrimidin-4-yl)-1H-pyrazol-1-yl]azetidin-3-yl}acetonitrile tris(trifluoroacetate) (salt)] | – | – | < 10 nM | – |
| N#CCC1(n2cc(-c3ncnc4[nH]ccc34)cn2)CN([C@H]2CC[C@@H](Oc3cc(CN4CCC(O)CC4)cc(C(F)(F)F)n3)CC2)C1 [Example 97, {1-(cis-4-{[4-[(4-hydroxypiperidin-1-yl)methyl]-6-(trifluoromethyl)pyridin-2-yl]oxy}cyclohexyl)-3-[4-(7H-pyrrolo[2,3-d]pyrimidin-4-yl)-1H-pyrazol-1-yl]azetidin-3-yl}acetonitrile tris(trifluoroacetate)] | – | – | < 10 nM | – |

More lines, main results first:

| IC50 (human JAK1; Table 4) | JAK2/JAK1 IC50 ratio (human JAK2; Table 4) | Molecule | IC50 (human JAK1; Table 5) | JAK2/JAK1 IC50 ratio (human JAK2; Table 5) |
| --- | --- | --- | --- | --- |
| < 10 nM | ≧10 | CC(O)(CO)c1cc(OC2CCC(N3CC(CC#N)(n4cc(-c5ncnc6[nH]ccc56)cn4)C3)CC2)nc(C(F)(F)F)n1 (single isomer, unassigned) [Example 57, {1-(cis-4-{[6-(1,2-dihydroxy-1-methylethyl)-2-(trifluoromethyl)pyrimidin-4-yl]oxy}cyclohexyl)-3-[4-(7H-pyrrolo[2,3-d]pyrimidin-4-yl)-1H-pyrazol-1-yl]azetidin-3-yl}acetonitrile tris(trifluoroacetate) (salt)] | – | – |
| < 10 nM | ≧10 | CC(O)(CO)c1cc(OC2CCC(N3CC(CC#N)(n4cc(-c5ncnc6[nH]ccc56)cn4)C3)CC2)nc(C(F)(F)F)n1 (single isomer, unassigned) [Example 57a, {1-(cis-4-{[6-(1,2-dihydroxy-1-methylethyl)-2-(trifluoromethyl)pyrimidin-4-yl]oxy}cyclohexyl)-3-[4-(7H-pyrrolo[2,3-d]pyrimidin-4-yl)-1H-pyrazol-1-yl]azetidin-3-yl}acetonitrile tris(trifluoroacetate) (salt)] | – | – |
| < 10 nM | ≧10 | CC(CO)c1cc(OC2CCC(N3CC(CC#N)(n4cc(-c5ncnc6[nH]ccc56)cn4)C3)CC2)nc(C(F)(F)F)n1 (single isomer, unassigned) [Example 59, {1-(cis-4-{[6-(2-hydroxy-1-methylethyl)-2-(trifluoromethyl)pyrimidin-4-yl]oxy}cyclohexyl)-3-[4-(7H-pyrrolo[2,3-d]pyrimidin-4-yl)-1H-pyrazol-1-yl]azetidin-3-yl}acetonitrile bis(trifluoroacetate) (salt)] | – | – |
| < 10 nM | ≧10 | CC(CO)c1cc(OC2CCC(N3CC(CC#N)(n4cc(-c5ncnc6[nH]ccc56)cn4)C3)CC2)nc(C(F)(F)F)n1 (single isomer, unassigned) [Example 59a, {1-(cis-4-{[6-(2-hydroxy-1-methylethyl)-2-(trifluoromethyl)pyrimidin-4-yl]oxy}cyclohexyl)-3-[4-(7H-pyrrolo[2,3-d]pyrimidin-4-yl)-1H-pyrazol-1-yl]azetidin-3-yl}acetonitrile bis(trifluoroacetate) (salt)] | – | – |
| < 10 nM | ≧10 | CN(C)Cc1cc(O[C@H]2CC[C@@H](N3CC(CC#N)(n4cc(-c5ncnc6[nH]ccc56)cn4)C3)CC2)nc(C(F)(F)F)n1 [Example 1, {1-(cis-4-{[6-[(Dimethylamino)methyl]-2-(trifluoromethyl)pyrimidin-4-yl]oxy}cyclohexyl)-3-[4-(7H-pyrrolo[2,3-d]pyrimidin-4-yl)-1H-pyrazol-1-yl]azetidin-3-yl}acetonitrile tetrakis(trifluoroacetate)] | – | – |
| < 10 nM | ≧10 | CNCc1cc(O[C@H]2CC[C@@H](N3CC(CC#N)(n4cc(-c5ncnc6[nH]ccc56)cn4)C3)CC2)nc(C(F)(F)F)n1 [Example 4, {1-(cis-4-{[6-[(Methylamino)methyl]-2-(trifluoromethyl)pyrimidin-4-yl]oxy}cyclohexyl)-3-[4-(7H-pyrrolo[2,3-d]pyrimidin-4-yl)-1H-pyrazol-1-yl]azetidin-3-yl}acetonitrile tris(trifluoroacetate)] | – | – |
| < 10 nM | – | N#CCC1(n2cc(-c3ncnc4[nH]ccc34)cn2)CN([C@H]2CC[C@@H](Oc3cc(CN4CCCCC4)nc(C(F)(F)F)n3)CC2)C1 [Example 30, {1-(cis-4-{[6-(piperidin-1-ylmethyl)-2-(trifluoromethyl)pyrimidin-4-yl]oxy}cyclohexyl)-3-[4-(7H-pyrrolo[2,3-d]pyrimidin-4-yl)-1H-pyrazol-1-yl]azetidin-3-yl}acetonitrile tris(trifluoroacetate)] | – | – |
